Assay results as given in the supplement of paper PMC8671470.

Test system: HL-60
Test: cell viability (% survival relative to DMSO control, bortezomib = 0%); higher = less cytotoxic
Conditions: 100 nM; 72 h
In short: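 Fifteen myeloid leukaemia cell lines were exposed to compounds at 1, 10, 100, 1000 or 10000 nM in 384-well plates for 72 h at 37 °C and 5% CO2. Viability was read by CellTiter-Glo luminescence and normalised, with vehicle as 100% and a 10 µM positive control as 0%. Values are percent survival averaged over duplicates.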

Row | SMILES | cell viability [%]
1 | CC(C)(F)C[C@H](N[C@@H](c1ccc(-c2ccc(S(C)(=O)=O)cc2)cc1)C(F)(F)F)C(=O)NC1(C#N)CC1 [Odanacatib] | 114
2 | CNC(=C[N+](=O)[O-])NCCSCc1ccc(CN(C)C)o1 [Ranitidine] | 97.5
3 | C#CCN[C@@H]1CCc2ccccc21 [Rasagiline] | 96.9
4 | NC(CCC(=O)NC(CSCc1ccc(Br)cc1)C(=O)NCC(=O)OC1CCCC1)C(=O)OC1CCCC1 (stereo not drawn) [S-para-Bromobenzylglutathione cyclopentyl diester] | 105
5 | COc1cc(C2Oc3cc(C4Oc5cc(O)cc(O)c5C(=O)C4O)ccc3OC2CO)ccc1O (stereo not drawn) [Silibinin] | 96.9
6 | Cn1c2cc(S(C)=O)sc2c2cnn(Cc3cccc(N)c3)c(=O)c21 (stereo not drawn) [TEPP-46] | 98.8
7 | CCCCCCCCCCCCCCOc1ccc(C(=O)O)o1 [TOFA] | 108
8 | CN1CC(=O)N2[C@H](c3ccc4c(c3)OCO4)c3[nH]c4ccccc4c3C[C@@H]2C1=O [Tadalafil] | 107
9 | Cl.NC1=CCCN1Cc1nc(O)nc(O)c1Cl [Tipiracil] | 127
10 | CCCC(CCC)C(=O)O [Valproic acid] | 99.2
11 | OCC(CO)N[C@H]1C[C@](O)(CO)[C@@H](O)[C@H](O)[C@H]1O [Voglibose] | 116

Same assay, conditions: 1000 nM; 72 h

Row | SMILES | cell viability [%]
12 | Cn1cc(C[C@@H](N)C(=O)O)c2ccccc21 [Indoximod] | 97.3
13 | O=C(Oc1ccc([N+](=O)[O-])cc1)N1CCC(C(O)(c2ccc3c(c2)OCO3)c2ccc3c(c2)OCO3)CC1 [JZL184] | 103
14 | O=C1N[C@@H]2[C@@H](O)[C@@H](O)[C@H](O)[C@@H](CO)N2C1=O [Kifunensine] | 120
15 | CC(C)(CCCCCCCCCCC(C)(C)CC(=O)O)CC(=O)O [MEDICA 16] | 116
16 | CC(C)c1ccc2c(c1)c(SC(C)(C)C)c(CC(C)(C)C(=O)O)n2Cc1ccc(Cl)cc1 [MK-886] | 93.7
17 | O=C(CCl)N(CCCNC(=O)C(F)(F)F)c1ccc([N+](=O)[O-])cc1 [ML175] | 83.4
18 | CN(C)C(=N)NC(=N)N [Metformin] | 102
19 | Cl.OC[C@H]1NC[C@H](O)[C@@H](O)[C@H]1O [Migalastat] | 106
20 | OCCN1C[C@H](O)[C@@H](O)[C@H](O)[C@H]1CO [Miglitol] | 105
21 | CCCCCCCNC=O [N-Heptyl-Formamide] | 143
22 | CC(C)(F)C[C@H](N[C@@H](c1ccc(-c2ccc(S(C)(=O)=O)cc2)cc1)C(F)(F)F)C(=O)NC1(C#N)CC1 [Odanacatib] | 118
23 | CNC(=C[N+](=O)[O-])NCCSCc1ccc(CN(C)C)o1 [Ranitidine] | 95.5
24 | C#CCN[C@@H]1CCc2ccccc21 [Rasagiline] | 76.2
25 | NC(CCC(=O)NC(CSCc1ccc(Br)cc1)C(=O)NCC(=O)OC1CCCC1)C(=O)OC1CCCC1 (stereo not drawn) [S-para-Bromobenzylglutathione cyclopentyl diester] | 90
26 | COc1cc(C2Oc3cc(C4Oc5cc(O)cc(O)c5C(=O)C4O)ccc3OC2CO)ccc1O (stereo not drawn) [Silibinin] | 105
27 | Cn1c2cc(S(C)=O)sc2c2cnn(Cc3cccc(N)c3)c(=O)c21 (stereo not drawn) [TEPP-46] | 113
28 | CCCCCCCCCCCCCCOc1ccc(C(=O)O)o1 [TOFA] | 109
29 | CN1CC(=O)N2[C@H](c3ccc4c(c3)OCO4)c3[nH]c4ccccc4c3C[C@@H]2C1=O [Tadalafil] | 72.9
30 | Cl.NC1=CCCN1Cc1nc(O)nc(O)c1Cl [Tipiracil] | 130
31 | CCCC(CCC)C(=O)O [Valproic acid] | 87.9
32 | OCC(CO)N[C@H]1C[C@](O)(CO)[C@@H](O)[C@H](O)[C@H]1O [Voglibose] | 88.2

Same assay, conditions: 10000 nM; 72 h

Row | SMILES | cell viability [%]
33 | Cn1cc(C[C@@H](N)C(=O)O)c2ccccc21 [Indoximod] | 106
34 | O=C(Oc1ccc([N+](=O)[O-])cc1)N1CCC(C(O)(c2ccc3c(c2)OCO3)c2ccc3c(c2)OCO3)CC1 [JZL184] | 101
35 | O=C1N[C@@H]2[C@@H](O)[C@@H](O)[C@H](O)[C@@H](CO)N2C1=O [Kifunensine] | 144
36 | CC(C)(CCCCCCCCCCC(C)(C)CC(=O)O)CC(=O)O [MEDICA 16] | 108
37 | CC(C)c1ccc2c(c1)c(SC(C)(C)C)c(CC(C)(C)C(=O)O)n2Cc1ccc(Cl)cc1 [MK-886] | 124
38 | O=C(CCl)N(CCCNC(=O)C(F)(F)F)c1ccc([N+](=O)[O-])cc1 [ML175] | -1.03
39 | CN(C)C(=N)NC(=N)N [Metformin] | 84.3
40 | Cl.OC[C@H]1NC[C@H](O)[C@@H](O)[C@H]1O [Migalastat] | 106
41 | OCCN1C[C@H](O)[C@@H](O)[C@H](O)[C@H]1CO [Miglitol] | 87.2
42 | CCCCCCCNC=O [N-Heptyl-Formamide] | 91.7
43 | CC(C)(F)C[C@H](N[C@@H](c1ccc(-c2ccc(S(C)(=O)=O)cc2)cc1)C(F)(F)F)C(=O)NC1(C#N)CC1 [Odanacatib] | 83.3
44 | CNC(=C[N+](=O)[O-])NCCSCc1ccc(CN(C)C)o1 [Ranitidine] | 121
45 | C#CCN[C@@H]1CCc2ccccc21 [Rasagiline] | 135
46 | NC(CCC(=O)NC(CSCc1ccc(Br)cc1)C(=O)NCC(=O)OC1CCCC1)C(=O)OC1CCCC1 (stereo not drawn) [S-para-Bromobenzylglutathione cyclopentyl diester] | 100
47 | COc1cc(C2Oc3cc(C4Oc5cc(O)cc(O)c5C(=O)C4O)ccc3OC2CO)ccc1O (stereo not drawn) [Silibinin] | 104
48 | Cn1c2cc(S(C)=O)sc2c2cnn(Cc3cccc(N)c3)c(=O)c21 (stereo not drawn) [TEPP-46] | 105
49 | CCCCCCCCCCCCCCOc1ccc(C(=O)O)o1 [TOFA] | 85.4
50 | CN1CC(=O)N2[C@H](c3ccc4c(c3)OCO4)c3[nH]c4ccccc4c3C[C@@H]2C1=O [Tadalafil] | 117
51 | Cl.NC1=CCCN1Cc1nc(O)nc(O)c1Cl [Tipiracil] | 119
52 | CCCC(CCC)C(=O)O [Valproic acid] | 103
53 | OCC(CO)N[C@H]1C[C@](O)(CO)[C@@H](O)[C@H](O)[C@H]1O [Voglibose] | 94.6
